In ChEMBL document CHEMBL1201862, “PubChem BioAssay data set” (2004):
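Compound exposure: 48 hours, 5 concentrations, 96-well plates. The concentration for 50% growth inhibition is given as GI50.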 Activity calls are given as the source filed them. Rule as the data show it: active = GI50 up to about 1.1 µM and inactive = higher.

Experiments:
Assay in all cases: DTP human tumour cell line panel, 48 h
[1] = system: HOP-18
[2] = system: SK-MEL-28
[3] = system: KM-20L2
[4] = system: HOP-62
[5] = system: MOLT-4
[6] = system: TK-10
[7] = system: SF-295
[8] = system: HCC 2998
[9] = system: SN12C
[10] = system: HT-29
[11] = system: SK-OV-3
[12] = system: SF-268
[13] = system: SNB-75
[14] = system: SNB-19
[15] = system: NCI-H460
[16] = system: A549
[17] = system: COLO 205
[18] = system: NCI-H23
[19] = system: RXF 393
[20] = system: SW-620
[21] = system: NCI-H226
[22] = system: DLD-1
[23] = system: K562
[24] = system: NCI-H522
[25] = system: DMS-114
[26] = system: KM12
[27] = system: DMS-273
[28] = system: HL-60
[29] = system: 786-0
[30] = system: IGROV-1
[31] = system: HCT-116
[32] = system: SK-MEL-5
[33] = system: EKVX
[34] = system: SNB-78
[35] = system: LXFL 529
[36] = system: OVCAR-4
[37] = system: SF-539
[38] = system: OVCAR-3
[39] = system: OVCAR-8
[40] = system: U-251
[41] = system: CCRF-CEM
[42] = system: RPMI-8226
[43] = system: UACC-62
[44] = system: BT-549
[45] = system: NCI/ADR-RES
[46] = system: T47D
[47] = system: Malme-3M
[48] = system: MDA-MB-435
[49] = system: MDA-MB-231
[50] = system: SR
[51] = system: MDA-N
[52] = system: PC-3
[53] = system: SK-MEL-2
[54] = system: HOP-92
[55] = system: UO-31
[56] = system: CAKI-1
[57] = system: M14
[58] = system: ACHN
[59] = system: DU-145
[60] = system: LOX IMVI
[61] = system: MCF7
[62] = system: UACC-257
[63] = system: A498
[64] = system: Hs-578T
[65] = system: OVCAR-5
[66] = system: HCT-15
[67] = system: M19-MEL

O=c1nc2sc3ccc4ccccc4c3n2nc1O
GI50 [1]: 71.3 µM (inactive) | GI50 [2]: 40.4 µM (inactive) | GI50 [3]: 25.3 µM (inactive) | GI50 [4]: 23.8 µM (inactive) | GI50 [5]: 57.4 µM (inactive) | GI50 [6]: > 100 µM (inactive) | GI50 [7]: 59.4 µM (inactive) | GI50 [8]: 54.8 µM (inactive) | GI50 [9]: 86.5 µM (inactive) | GI50 [10]: 47.9 µM (inactive) | GI50 [11]: > 100 µM (inactive) | GI50 [12]: 40.4 µM (inactive) | GI50 [13]: 41.1 µM (inactive) | GI50 [14]: 60.1 µM (inactive) | GI50 [15]: 39.3 µM (inactive) | GI50 [16]: > 100 µM (inactive) | GI50 [17]: 62.4 µM (inactive) | GI50 [18]: 71.1 µM (inactive) | GI50 [19]: 15.5 µM (inactive) | GI50 [20]: 79.4 µM (inactive) | GI50 [21]: 30.5 µM (inactive) | GI50 [22]: 40.9 µM (inactive) | GI50 [23]: 44.5 µM (inactive) | GI50 [24]: 53.7 µM (inactive) | GI50 [25]: 75.2 µM (inactive) | GI50 [26]: > 100 µM (inactive) | GI50 [27]: 39.8 µM (inactive) | GI50 [28]: > 100 µM (inactive) | GI50 [29]: > 10 µM (inactive) | GI50 [30]: 67 µM (inactive) | GI50 [31]: 78.9 µM (inactive) | GI50 [32]: 43.8 µM (inactive) | GI50 [33]: 60 µM (inactive) | GI50 [34]: 70.3 µM (inactive) | GI50 [35]: 68.1 µM (inactive) | GI50 [36]: 28.8 µM (inactive) | GI50 [37]: > 100 µM (inactive) | GI50 [38]: 55.2 µM (inactive) | GI50 [39]: 94.6 µM (inactive) | GI50 [40]: 25.2 µM (inactive) | GI50 [41]: 40.1 µM (inactive) | GI50 [42]: > 10 µM (inactive) | GI50 [43]: 46.7 µM (inactive)

CC(=O)O/C=C\OC1CCCC1(c1ccccc1)c1ccccc1 (configuration not stated)
GI50 [44]: 1.95 µM (inactive) | GI50 [2]: 2.1 µM (inactive) | GI50 [4]: 12.4 µM (inactive) | GI50 [45]: 2.84 µM (inactive) | GI50 [5]: 2.79 µM (inactive) | GI50 [6]: 3.48 µM (inactive) | GI50 [7]: 8.11 µM (inactive) | GI50 [8]: 8.91 µM (inactive) | GI50 [46]: 2.47 µM (inactive) | GI50 [47]: 2.18 µM (inactive) | GI50 [9]: 3.32 µM (inactive) | GI50 [10]: 2.91 µM (inactive) | GI50 [11]: 14.4 µM (inactive) | GI50 [12]: 2.92 µM (inactive) | GI50 [48]: 1.96 µM (inactive) | GI50 [49]: 2.4 µM (inactive) | GI50 [50]: 1.98 µM (inactive) | GI50 [13]: 3.35 µM (inactive) | GI50 [51]: 2.31 µM (inactive) | GI50 [14]: 11.2 µM (inactive) | GI50 [52]: 3.12 µM (inactive) | GI50 [15]: 7.26 µM (inactive) | GI50 [16]: 20.4 µM (inactive) | GI50 [17]: 4.08 µM (inactive) | GI50 [18]: 2.49 µM (inactive) | GI50 [19]: 2.3 µM (inactive) | GI50 [20]: 2.42 µM (inactive) | GI50 [21]: 9.04 µM (inactive) | GI50 [23]: 2.16 µM (inactive) | GI50 [24]: 10.1 µM (inactive) | GI50 [26]: 3.49 µM (inactive) | GI50 [53]: 3.57 µM (inactive) | GI50 [28]: 1.34 µM (inactive) | GI50 [54]: 1.82 µM (inactive) | GI50 [55]: 1.94 µM (inactive) | GI50 [29]: 3.21 µM (inactive) | GI50 [30]: 2.24 µM (inactive) | GI50 [31]: 1.98 µM (inactive) | GI50 [56]: 4.5 µM (inactive) | GI50 [57]: 2.47 µM (inactive) | GI50 [32]: 2.61 µM (inactive) | GI50 [58]: 2.03 µM (inactive) | GI50 [59]: 3.95 µM (inactive) | GI50 [60]: 1.63 µM (inactive) | GI50 [33]: 7.5 µM (inactive) | GI50 [36]: 2.1 µM (inactive) | GI50 [37]: 1.73 µM (inactive) | GI50 [61]: 2.21 µM (inactive) | GI50 [38]: 2.9 µM (inactive) | GI50 [62]: 3.65 µM (inactive) | GI50 [39]: 2.42 µM (inactive) | GI50 [40]: 3.52 µM (inactive) | GI50 [63]: 18 µM (inactive) | GI50 [64]: 3.1 µM (inactive) | GI50 [65]: 7.13 µM (inactive) | GI50 [41]: 2.37 µM (inactive) | GI50 [66]: 2.13 µM | GI50 [42]: 2.65 µM (inactive) | GI50 [43]: 5.27 µM (inactive)

CC(=O)N(C(C)=O)C1=C2c3ccccc3N(S(=O)(=O)c3ccccc3)C2n2c(=O)n(-c3ccccc3)c(=O)n2C1 (configuration not stated)
GI50 [1]: 22 µM (inactive) | GI50 [2]: 30 µM (inactive) | GI50 [3]: 34.2 µM (inactive) | GI50 [4]: 62.4 µM (inactive) | GI50 [6]: 36.8 µM (inactive) | GI50 [7]: 31.8 µM (inactive) | GI50 [8]: 22.7 µM (inactive) | GI50 [47]: 20.9 µM (inactive) | GI50 [9]: 69.7 µM (inactive) | GI50 [10]: 59 µM (inactive) | GI50 [11]: 32.8 µM (inactive) | GI50 [12]: > 100 µM (inactive) | GI50 [50]: 5.78 µM (inactive) | GI50 [13]: 14 µM (inactive) | GI50 [14]: 30.3 µM (inactive) | GI50 [15]: 15.3 µM (inactive) | GI50 [16]: 65.6 µM (inactive) | GI50 [17]: 30.7 µM (inactive) | GI50 [18]: 26.5 µM (inactive) | GI50 [20]: 40.6 µM (inactive) | GI50 [22]: 32.6 µM (inactive) | GI50 [23]: 40.1 µM (inactive) | GI50 [24]: 17.1 µM (inactive) | GI50 [67]: 27.1 µM (inactive) | GI50 [26]: 34.7 µM (inactive) | GI50 [53]: 22.9 µM (inactive) | GI50 [27]: 44.2 µM (inactive) | GI50 [28]: 23.3 µM (inactive) | GI50 [54]: 24.2 µM (inactive) | GI50 [55]: 29.7 µM (inactive) | GI50 [29]: 38.6 µM (inactive) | GI50 [30]: 41.7 µM (inactive) | GI50 [31]: 43.3 µM (inactive) | GI50 [56]: 27.5 µM (inactive) | GI50 [57]: 27.3 µM (inactive) | GI50 [32]: 27 µM (inactive) | GI50 [58]: 30.9 µM (inactive) | GI50 [60]: 29.9 µM (inactive) | GI50 [33]: 21.9 µM (inactive) | GI50 [35]: 39.7 µM (inactive) | GI50 [37]: 19.9 µM (inactive) | GI50 [38]: 25.5 µM (inactive) | GI50 [62]: 44.2 µM (inactive) | GI50 [39]: 23.3 µM (inactive) | GI50 [40]: 34.4 µM (inactive) | GI50 [65]: 30.6 µM (inactive) | GI50 [41]: 35 µM (inactive) | GI50 [66]: 30.4 µM | GI50 [42]: 12.7 µM (inactive) | GI50 [43]: 18.1 µM (inactive)
